Assay results taken from ChEMBL document CHEMBL3132747, “Design and synthesis of a novel series of N,4-diphenylpyrimidin-2-amine derivatives as potent and selective PI3K inhibitors” (Medchemcomm, 2014).
pIC50: −log10 of the molar value.

How the values were obtained:
[1] = test system: MCF7; test: Anticancer activity against human MCF7 cells by MTT assay; assay type: functional, cell-based
[2] = test system: A549; test: Anticancer activity against human A549 cells by MTT assay; assay type: functional, cell-based
[3] = molecular target: Phosphatidylinositol 4,5-bisphosphate 3-kinase catalytic subunit alpha isoform (Homo sapiens, UniProt P42336); test: Inhibition of human PI3Kalpha
Chain of Phosphatidylinositol 4,5-bisphosphate 3-kinase catalytic subunit alpha isoform (P42336 whole entry, canonical isoform): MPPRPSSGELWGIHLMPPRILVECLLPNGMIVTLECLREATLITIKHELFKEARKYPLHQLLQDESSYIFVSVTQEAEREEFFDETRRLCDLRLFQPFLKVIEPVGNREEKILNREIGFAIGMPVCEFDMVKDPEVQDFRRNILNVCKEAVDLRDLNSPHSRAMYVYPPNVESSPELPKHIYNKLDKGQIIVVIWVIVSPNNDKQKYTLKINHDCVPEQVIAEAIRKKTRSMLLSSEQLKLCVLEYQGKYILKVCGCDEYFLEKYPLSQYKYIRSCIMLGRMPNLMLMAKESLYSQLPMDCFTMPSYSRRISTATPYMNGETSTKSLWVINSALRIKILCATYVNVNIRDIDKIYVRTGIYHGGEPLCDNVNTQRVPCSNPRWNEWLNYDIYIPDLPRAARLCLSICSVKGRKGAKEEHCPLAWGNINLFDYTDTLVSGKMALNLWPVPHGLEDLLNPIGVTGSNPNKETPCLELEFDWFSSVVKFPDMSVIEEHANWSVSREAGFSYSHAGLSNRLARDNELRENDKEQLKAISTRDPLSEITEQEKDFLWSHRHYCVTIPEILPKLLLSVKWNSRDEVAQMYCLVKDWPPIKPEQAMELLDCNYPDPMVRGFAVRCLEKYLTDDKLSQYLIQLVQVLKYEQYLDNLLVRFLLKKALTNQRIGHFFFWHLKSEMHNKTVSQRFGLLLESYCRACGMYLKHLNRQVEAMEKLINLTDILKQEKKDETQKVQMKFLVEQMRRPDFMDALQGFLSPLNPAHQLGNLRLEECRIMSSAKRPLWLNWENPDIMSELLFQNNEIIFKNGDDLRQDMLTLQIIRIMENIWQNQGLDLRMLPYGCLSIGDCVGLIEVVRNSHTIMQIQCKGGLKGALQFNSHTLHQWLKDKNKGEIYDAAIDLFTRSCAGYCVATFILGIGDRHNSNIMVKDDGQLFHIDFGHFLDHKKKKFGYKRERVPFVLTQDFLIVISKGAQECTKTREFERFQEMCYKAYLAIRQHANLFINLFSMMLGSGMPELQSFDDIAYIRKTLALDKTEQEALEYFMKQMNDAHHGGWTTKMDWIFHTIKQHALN

[4] = molecular target: Phosphatidylinositol 4,5-bisphosphate 3-kinase catalytic subunit beta isoform (Homo sapiens, UniProt P42338); test: Inhibition of human PI3Kbeta
Chain of Phosphatidylinositol 4,5-bisphosphate 3-kinase catalytic subunit beta isoform (P42338 whole entry, canonical isoform): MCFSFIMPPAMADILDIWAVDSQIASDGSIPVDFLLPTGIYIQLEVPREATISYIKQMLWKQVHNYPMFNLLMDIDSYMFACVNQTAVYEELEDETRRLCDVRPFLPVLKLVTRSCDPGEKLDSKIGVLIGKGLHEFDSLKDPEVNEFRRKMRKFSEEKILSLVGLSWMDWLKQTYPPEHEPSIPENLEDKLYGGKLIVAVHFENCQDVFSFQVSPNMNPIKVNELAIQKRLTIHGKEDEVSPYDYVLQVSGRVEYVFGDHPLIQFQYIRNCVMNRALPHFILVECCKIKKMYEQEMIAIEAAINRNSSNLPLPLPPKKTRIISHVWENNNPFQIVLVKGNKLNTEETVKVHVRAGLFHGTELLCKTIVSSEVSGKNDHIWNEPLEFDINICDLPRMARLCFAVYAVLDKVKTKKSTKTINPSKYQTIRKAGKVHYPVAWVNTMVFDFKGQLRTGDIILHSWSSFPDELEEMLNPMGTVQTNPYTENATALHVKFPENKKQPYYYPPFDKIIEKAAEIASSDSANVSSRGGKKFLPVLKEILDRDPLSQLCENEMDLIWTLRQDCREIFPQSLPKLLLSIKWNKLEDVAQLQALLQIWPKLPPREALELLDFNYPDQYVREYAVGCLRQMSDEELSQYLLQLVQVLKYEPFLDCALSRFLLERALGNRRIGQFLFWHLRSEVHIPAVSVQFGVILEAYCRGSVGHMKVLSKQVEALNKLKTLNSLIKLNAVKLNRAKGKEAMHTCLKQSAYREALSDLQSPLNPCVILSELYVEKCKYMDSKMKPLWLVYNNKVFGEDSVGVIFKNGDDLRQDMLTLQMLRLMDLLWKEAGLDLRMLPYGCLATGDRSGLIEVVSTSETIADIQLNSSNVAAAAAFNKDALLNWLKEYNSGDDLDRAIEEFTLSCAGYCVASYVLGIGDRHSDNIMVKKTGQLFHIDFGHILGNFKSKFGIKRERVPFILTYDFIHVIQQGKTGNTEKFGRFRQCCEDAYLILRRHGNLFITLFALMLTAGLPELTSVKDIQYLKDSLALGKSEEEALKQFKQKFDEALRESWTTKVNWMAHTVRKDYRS

[5] = test system: HeLa; test: Anticancer activity against human HeLa cells by MTT assay; assay type: functional, cell-based
[6] = test system: HepG2; test: Anticancer activity against human HepG2 cells by MTT assay; assay type: functional, cell-based
[7] = molecular target: Phosphatidylinositol 4,5-bisphosphate 3-kinase catalytic subunit gamma isoform (Homo sapiens, UniProt P48736); test: Inhibition of human PI3Kgamma; conditions: for pIC50: read-out: IC50; for IC50: read-out: pIC50 (converted)
Chain of Phosphatidylinositol 4,5-bisphosphate 3-kinase catalytic subunit gamma isoform (P48736 whole entry, canonical isoform): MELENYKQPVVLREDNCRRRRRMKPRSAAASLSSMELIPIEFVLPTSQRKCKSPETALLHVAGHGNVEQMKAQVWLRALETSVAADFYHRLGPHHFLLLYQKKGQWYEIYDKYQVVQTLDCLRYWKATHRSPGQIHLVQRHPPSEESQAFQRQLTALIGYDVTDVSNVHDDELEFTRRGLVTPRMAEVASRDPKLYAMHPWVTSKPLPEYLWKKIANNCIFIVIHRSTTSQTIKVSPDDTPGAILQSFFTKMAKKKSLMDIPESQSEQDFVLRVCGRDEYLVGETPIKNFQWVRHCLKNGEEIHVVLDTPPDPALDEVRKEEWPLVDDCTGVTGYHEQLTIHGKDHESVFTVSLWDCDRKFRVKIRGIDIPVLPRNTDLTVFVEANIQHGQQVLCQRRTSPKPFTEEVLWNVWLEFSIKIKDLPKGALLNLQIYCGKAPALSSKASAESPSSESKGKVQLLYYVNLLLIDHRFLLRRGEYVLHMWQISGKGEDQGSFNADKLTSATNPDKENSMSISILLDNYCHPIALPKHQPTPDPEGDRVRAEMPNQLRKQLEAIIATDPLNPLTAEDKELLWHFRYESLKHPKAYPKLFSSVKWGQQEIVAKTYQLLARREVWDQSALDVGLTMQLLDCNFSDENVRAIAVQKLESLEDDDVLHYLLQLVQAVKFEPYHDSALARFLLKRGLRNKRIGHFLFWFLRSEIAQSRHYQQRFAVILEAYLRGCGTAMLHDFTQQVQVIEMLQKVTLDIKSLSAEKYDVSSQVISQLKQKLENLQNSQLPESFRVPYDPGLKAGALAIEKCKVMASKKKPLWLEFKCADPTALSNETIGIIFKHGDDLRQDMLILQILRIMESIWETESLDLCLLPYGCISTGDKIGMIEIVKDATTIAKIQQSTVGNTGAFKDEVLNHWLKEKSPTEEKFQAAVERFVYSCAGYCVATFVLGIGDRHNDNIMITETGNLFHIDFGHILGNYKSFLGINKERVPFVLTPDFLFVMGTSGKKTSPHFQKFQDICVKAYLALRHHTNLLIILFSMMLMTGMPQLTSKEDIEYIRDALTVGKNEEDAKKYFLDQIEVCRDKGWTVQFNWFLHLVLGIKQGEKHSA

[8] = test system: A549; test: Induction of apoptosis in human A549 cells assessed as late apoptotic cells at 16 uM after 48 hrs using annexin V and propidium iodide staining by flow cytometry (reference value: 9.79 %); assay type: functional
[9] = test system: A549; test: Induction of apoptosis in human A549 cells assessed as viable cells at 1 uM after 48 hrs using annexin V and propidium iodide staining by flow cytometry (reference value: 78.8 %); assay type: functional; conditions: A549, 48 h, read-out: Activity
[10] = test system: A549; test: Induction of apoptosis in human A549 cells assessed as viable cells at 16 uM after 48 hrs using annexin V and propidium iodide staining by flow cytometry (reference value: 78.8 %); assay type: functional; conditions: A549, 48 h, read-out: Activity
[11] = test system: A549; test: Induction of apoptosis in human A549 cells assessed as viable cells at 4 uM after 48 hrs using annexin V and propidium iodide staining by flow cytometry (reference value: 78.8 %); assay type: functional; conditions: A549, 48 h, read-out: Activity
[12] = test system: A549; test: Induction of apoptosis in human A549 cells assessed as late necrotic cells at 4 uM after 48 hrs using annexin V and propidium iodide staining by flow cytometry (reference value: 6.00 %); assay type: functional
[13] = test system: A549; test: Induction of apoptosis in human A549 cells assessed as late apoptotic cells at 1 uM after 48 hrs using annexin V and propidium iodide staining by flow cytometry (reference value: 9.79 %); assay type: functional
[14] = test system: A549; test: Induction of apoptosis in human A549 cells assessed as late necrotic cells at 16 uM after 48 hrs using annexin V and propidium iodide staining by flow cytometry (reference value: 6.00 %); assay type: functional
[15] = test system: A549; test: Induction of apoptosis in human A549 cells assessed as apoptotic cells at 4 uM after 48 hrs using annexin V and propidium iodide staining by flow cytometry (reference value: 5.37 %); assay type: functional
[16] = molecular target: Cyclin-dependent kinase 2 (Homo sapiens, UniProt P24941); test: Inhibition of CDK2 (unknown origin)
[17] = test system: A549; test: Induction of apoptosis in human A549 cells assessed as apoptotic cells at 1 uM after 48 hrs using annexin V and propidium iodide staining by flow cytometry (reference value: 5.37 %); assay type: functional
[18] = test system: A549; test: Induction of apoptosis in human A549 cells assessed as apoptotic cells at 16 uM after 48 hrs using annexin V and propidium iodide staining by flow cytometry (reference value: 5.37 %); assay type: functional
[19] = molecular target: Tyrosine-protein kinase JAK2 (Homo sapiens, UniProt O60674); test: Inhibition of JAK2 (unknown origin)
[20] = molecular target: Epidermal growth factor receptor (Homo sapiens, UniProt P00533); test: Inhibition of EGFR (unknown origin)
Chain of Epidermal growth factor receptor (P00533 whole entry): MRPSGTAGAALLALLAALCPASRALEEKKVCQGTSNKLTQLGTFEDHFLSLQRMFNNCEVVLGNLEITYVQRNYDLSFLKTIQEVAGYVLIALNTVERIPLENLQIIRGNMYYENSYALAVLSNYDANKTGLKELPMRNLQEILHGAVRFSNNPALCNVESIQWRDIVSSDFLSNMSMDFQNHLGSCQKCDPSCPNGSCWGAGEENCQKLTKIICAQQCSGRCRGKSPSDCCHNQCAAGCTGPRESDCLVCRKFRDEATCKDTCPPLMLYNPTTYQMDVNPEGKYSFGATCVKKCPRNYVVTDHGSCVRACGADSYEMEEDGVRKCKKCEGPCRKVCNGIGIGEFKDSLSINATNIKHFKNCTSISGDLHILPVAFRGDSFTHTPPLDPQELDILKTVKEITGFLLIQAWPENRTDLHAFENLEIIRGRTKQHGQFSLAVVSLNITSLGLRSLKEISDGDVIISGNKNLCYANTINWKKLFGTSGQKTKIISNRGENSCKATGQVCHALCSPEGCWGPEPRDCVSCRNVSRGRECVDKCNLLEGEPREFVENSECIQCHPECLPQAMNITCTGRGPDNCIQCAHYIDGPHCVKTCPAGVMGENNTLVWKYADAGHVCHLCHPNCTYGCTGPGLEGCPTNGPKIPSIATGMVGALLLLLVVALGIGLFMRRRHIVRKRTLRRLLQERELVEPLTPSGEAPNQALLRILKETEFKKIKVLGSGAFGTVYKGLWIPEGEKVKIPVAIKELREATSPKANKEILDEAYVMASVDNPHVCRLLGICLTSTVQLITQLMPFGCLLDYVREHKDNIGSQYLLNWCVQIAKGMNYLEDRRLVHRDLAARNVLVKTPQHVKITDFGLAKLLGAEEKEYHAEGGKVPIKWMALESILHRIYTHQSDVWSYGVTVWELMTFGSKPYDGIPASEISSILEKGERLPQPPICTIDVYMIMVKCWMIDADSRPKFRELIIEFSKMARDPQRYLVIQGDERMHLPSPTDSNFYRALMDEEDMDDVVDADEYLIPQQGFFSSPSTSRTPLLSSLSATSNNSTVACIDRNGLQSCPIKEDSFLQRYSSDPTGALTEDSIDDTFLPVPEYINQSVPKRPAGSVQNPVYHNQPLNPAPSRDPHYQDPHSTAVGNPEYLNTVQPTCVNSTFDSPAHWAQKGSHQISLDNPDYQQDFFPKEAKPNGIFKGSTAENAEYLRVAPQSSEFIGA

[21] = test system: A549; test: Induction of apoptosis in human A549 cells assessed as late apoptotic cells at 4 uM after 48 hrs using annexin V and propidium iodide staining by flow cytometry (reference value: 9.79 %); assay type: functional
[22] = test system: A549; test: Induction of apoptosis in human A549 cells assessed as late necrotic cells at 1 uM after 48 hrs using annexin V and propidium iodide staining by flow cytometry (reference value: 6.00 %); assay type: functional

COc1ccc(-c2ccnc(Nc3ccc(Cl)cc3)n2)cc1 gave a pIC50 [1] of 6.09, a pIC50 [2] of 4.68 and a pIC50 [3] of 6.26. The pIC50 [4] was 6.22, the pIC50 [5] was 6.51 and the pIC50 [6] was 5.35. It also gave a pIC50 [7] of 6.78 and an IC50 [7] of 0.167 µM.
COc1cccc(Nc2nccc(-c3ccc(Cl)cc3Cl)n2)c1 gave a pIC50 [1] of 3.72, a pIC50 [2] of 4.49 and a pIC50 [3] of 6.07. It also gave a pIC50 [4] of 6.05, a pIC50 [5] of 4.12 and a pIC50 [6] of 4.01. For the same molecule, the pIC50 [7] was 6.56 and the IC50 [7] was 0.278 µM.
Work on O=[N+]([O-])c1ccc(Nc2nccc(-c3ccc(F)cc3)n2)cc1 yielded a pIC50 [1] of 6.40, a pIC50 [2] of 4.08 and a pIC50 [3] of 6.17. It also gave a pIC50 [4] of 6.06, a pIC50 [5] of 5.45 and a pIC50 [6] of 5.10. The pIC50 [7] was 6.61 and the IC50 [7] was 0.247 µM.
Cc1ccc(-c2ccnc(Nc3ccc(Cl)cc3Cl)n2)cc1 was tested, and the pIC50 [1] was < 3.00, the pIC50 [2] was 3.78 and the pIC50 [3] was < 6.00. The pIC50 [4] was < 6.00, the pIC50 [5] was 4.04 and the pIC50 [6] was 3.46. The pIC50 [7] was 6.43 and the IC50 [7] was 0.371 µM.
For O=[N+]([O-])c1ccc(Nc2nccc(-c3ccc(Br)cc3)n2)cc1, the pIC50 [1] was 3.17, the pIC50 [2] was 4.12 and the pIC50 [3] was 6.02. It also gave a pIC50 [4] of 6.02, a pIC50 [5] of 4.59 and a pIC50 [6] of 4.37. For the same molecule, the pIC50 [7] was 6.58 and the IC50 [7] was 0.265 µM.
COc1cc(Nc2nccc(-c3ccc(Cl)cc3)n2)cc(OC)c1OC was tested, and the Activity [8] was 39.4%, the viability at 1 µM [9] was 62.9% and the viability at 16 µM [10] was 44.9%. The pIC50 [1] was 5.50, the pIC50 [2] was 6.44 and the pIC50 [3] was 6.47. The viability at 4 µM [11] was 56.1%, the Activity [12] was 4.62% and the Activity [13] was 25%. The pIC50 [4] was 6.43, the pIC50 [5] was 6.54 and the Activity [14] was 2.19%. It also gave an Activity [15] of 6.53%, a pIC50 [16] of 4.73 and a pIC50 [6] of 7.05. The Activity [17] was 8.47%, the Activity [18] was 13.5% and the pIC50 [19] was 4.67. For the same molecule, the pIC50 [20] was 5.67, the Activity [21] was 32.8% and the pIC50 [7] was ≥ 7.19. For the same molecule, the Activity [22] was 3.66%.
Molecule COc1ccc(-c2ccnc(Nc3cccc(OC)c3)n2)cc1 has a pIC50 [1] of 5.46, a pIC50 [2] of 5.19 and a pIC50 [3] of 6.21. It also gave a pIC50 [4] of 6.14, a pIC50 [5] of 6.26 and a pIC50 [6] of 4.86. It also gave a pIC50 [7] of 6.71 and an IC50 [7] of 0.195 µM.
In the case of Clc1ccc(Nc2nccc(-c3ccc(Cl)cc3Cl)n2)c(Cl)c1, the pIC50 [1] was 5.50, the pIC50 [2] was 4.94 and the pIC50 [3] was 6.11. For the same molecule, the pIC50 [4] was 6.10, the pIC50 [5] was 5.81 and the pIC50 [6] was 5.09. It also gave a pIC50 [7] of 6.57 and an IC50 [7] of 0.268 µM.
Molecule O=[N+]([O-])c1ccc(Nc2nccc(-c3ccc(Cl)c(Cl)c3)n2)cc1 has a pIC50 [1] of 5.45, a pIC50 [2] of 6.14 and a pIC50 [3] of 6.30. It also gave a pIC50 [4] of 6.24, a pIC50 [5] of 5.74 and a pIC50 [6] of 6.30. For the same molecule, the pIC50 [7] was 6.81 and the IC50 [7] was 0.154 µM.
Molecule Clc1ccc(Nc2nccc(-c3ccc(Cl)c(Cl)c3)n2)c(Cl)c1 has a pIC50 [1] of 4.34, a pIC50 [2] of 4.59 and a pIC50 [3] of 6.08. For the same molecule, the pIC50 [4] was 6.03, the pIC50 [5] was 4.64 and the pIC50 [6] was 4.55. For the same molecule, the pIC50 [7] was 6.60 and the IC50 [7] was 0.25 µM.
COc1ccc(-c2ccnc(Nc3ccc(Cl)cc3Cl)n2)cc1 showed a pIC50 [1] of 5.38, a pIC50 [2] of 5.13 and a pIC50 [3] of 6.13. The pIC50 [4] was 6.08, the pIC50 [5] was 4.64 and the pIC50 [6] was 6.72. It also gave a pIC50 [7] of 6.63 and an IC50 [7] of 0.235 µM.
In the case of Cc1cccc(Nc2nccc(-c3ccc(Br)cc3)n2)c1, the pIC50 [1] was 3.68, the pIC50 [2] was 4.20 and the pIC50 [3] was 6.05. For the same molecule, the pIC50 [4] was < 6.00, the pIC50 [5] was 4.15 and the pIC50 [6] was 4.13. For the same molecule, the pIC50 [7] was 6.47 and the IC50 [7] was 0.342 µM.
In the case of COc1cccc(Nc2nccc(-c3ccc(F)cc3)n2)c1, the pIC50 [1] was 3.38, the pIC50 [2] was 4.44 and the pIC50 [3] was 6.06. The pIC50 [4] was < 6.00, the pIC50 [5] was 3.84 and the pIC50 [6] was 3.89. It also gave a pIC50 [7] of 6.48 and an IC50 [7] of 0.334 µM.
Clc1ccc(Nc2nccc(-c3ccc(Br)cc3)n2)cc1 gave a pIC50 [1] of 5.38, a pIC50 [2] of 5.21 and a pIC50 [3] of 6.04. The pIC50 [4] was 6.02, the pIC50 [5] was 4.44 and the pIC50 [6] was 4.32. For the same molecule, the pIC50 [7] was 6.52 and the IC50 [7] was 0.302 µM.
CC(C)c1ccccc1Nc1nccc(-c2ccc(Br)cc2)n1 gave a pIC50 [1] of 3.95, a pIC50 [2] of 5.43 and a pIC50 [3] of 6.10. The pIC50 [4] was 6.06, the pIC50 [5] was 4.94 and the pIC50 [6] was 5.15. It also gave a pIC50 [7] of 6.50 and an IC50 [7] of 0.313 µM.
Work on O=[N+]([O-])c1ccc(Nc2nccc(-c3ccc(Cl)cc3Cl)n2)cc1 yielded a pIC50 [1] of 3.72, a pIC50 [2] of 3.92 and a pIC50 [3] of 6.02. For the same molecule, the pIC50 [4] was 6.03, the pIC50 [5] was 3.77 and the pIC50 [6] was 4.00. For the same molecule, the pIC50 [7] was 6.41 and the IC50 [7] was 0.386 µM.
Cc1cccc(Nc2nccc(-c3ccc(Cl)cc3Cl)n2)c1 gave a pIC50 [1] of 3.60, a pIC50 [2] of 4.73 and a pIC50 [3] of 6.09. It also gave a pIC50 [4] of 6.07, a pIC50 [5] of 5.12 and a pIC50 [6] of 4.88. The pIC50 [7] was 6.56 and the IC50 [7] was 0.274 µM.
Molecule COc1ccc(-c2ccnc(Nc3ccc([N+](=O)[O-])cc3)n2)cc1 has a pIC50 [1] of 6.11, a pIC50 [2] of 5.56 and a pIC50 [3] of 6.28. It also gave a pIC50 [4] of 6.27, a pIC50 [5] of 6.01 and a pIC50 [6] of 5.98. It also gave a pIC50 [7] of 6.84 and an IC50 [7] of 0.143 µM.
In the case of Clc1ccc(Nc2nccc(-c3ccc(Br)cc3)n2)c(Cl)c1, the pIC50 [1] was 5.60, the pIC50 [2] was 5.42 and the pIC50 [3] was 6.23. For the same molecule, the pIC50 [4] was 6.17, the pIC50 [5] was 5.97 and the pIC50 [6] was 6.14. For the same molecule, the pIC50 [7] was 6.64 and the IC50 [7] was 0.231 µM.
Nc1nc(N)c2nc(-c3cccc(O)c3)cnc2n1 showed a pIC50 [1] of 5.99, a pIC50 [2] of 6.31 and a pIC50 [5] of 6.82. For the same molecule, the pIC50 [6] was 6.09.
With COc1cccc(Nc2nccc(-c3ccc(Br)cc3)n2)c1 the pIC50 [1] was 3.56, the pIC50 [2] was 4.08 and the pIC50 [3] was < 6.00. The pIC50 [4] was 6.01, the pIC50 [5] was 3.82 and the pIC50 [6] was 3.83. The pIC50 [7] was 6.45 and the IC50 [7] was 0.357 µM.
Molecule COc1cccc(Nc2nccc(-c3ccc(Cl)c(Cl)c3)n2)c1 has a pIC50 [1] of 4.68, a pIC50 [2] of 5.22 and a pIC50 [3] of 6.20. It also gave a pIC50 [4] of 6.13, a pIC50 [5] of 5.30 and a pIC50 [6] of 5.47. For the same molecule, the pIC50 [7] was 6.66 and the IC50 [7] was 0.217 µM.
